COC(=O)Nc1ccc(C)c(NC(=O)OC)c1
Settings	solubility (mole fraction)
in di(2-ethylhexyl) phthalate, 334.25 K	0.167
in di(2-ethylhexyl) phthalate, 346.95 K	0.172
in di(2-ethylhexyl) phthalate, 363.65 K	0.178
in di(2-ethylhexyl) phthalate, 378.65 K	0.186
in di(2-ethylhexyl) phthalate, 389.55 K	0.195
in di(2-ethylhexyl) phthalate, 398.15 K	0.2
in dimethyl carbonate, 307.75 K	0.0087
in dimethyl carbonate, 316.15 K	0.013
in dimethyl carbonate, 324.35 K	0.0173
in dimethyl carbonate, 330.65 K	0.0216
in dimethyl carbonate, 335.85 K	0.0258
in dimethyl carbonate, 339.35 K	0.0299
in dimethyl carbonate, 343.65 K	0.0341
in dimethyl carbonate, 353.15 K	0.0423
in dimethyl carbonate, 360.75 K	0.0503
in dimethyl carbonate, 365.15 K	0.0535

COC(=O)Nc1ccc(C)c(N)c1
Settings	solubility (mole fraction)
in di(2-ethylhexyl) phthalate, 326.55 K	0.032
in di(2-ethylhexyl) phthalate, 333.75 K	0.0422
in di(2-ethylhexyl) phthalate, 341.65 K	0.0522
in di(2-ethylhexyl) phthalate, 349.95 K	0.062
in di(2-ethylhexyl) phthalate, 363.55 K	0.081
in di(2-ethylhexyl) phthalate, 391.85 K	0.0992
in dimethyl carbonate, 306.35 K	0.0339
in dimethyl carbonate, 314.25 K	0.0446
in dimethyl carbonate, 316.75 K	0.0499
in dimethyl carbonate, 320.65 K	0.0552
in dimethyl carbonate, 323.45 K	0.0604
in dimethyl carbonate, 328.25 K	0.0655
in dimethyl carbonate, 334.45 K	0.0706
in dimethyl carbonate, 341.85 K	0.0756

Cc1ccc(N)cc1N
Settings	solubility (mole fraction)
in di(2-ethylhexyl) phthalate, 312.45 K	0.061
in di(2-ethylhexyl) phthalate, 324.25 K	0.075
in di(2-ethylhexyl) phthalate, 332.52 K	0.0871
in di(2-ethylhexyl) phthalate, 340.05 K	0.0972
in di(2-ethylhexyl) phthalate, 349.75 K	0.108
in di(2-ethylhexyl) phthalate, 361.55 K	0.127
in dimethyl carbonate, 305.75 K	0.107
in dimethyl carbonate, 310.05 K	0.113
in dimethyl carbonate, 312.85 K	0.116
in dimethyl carbonate, 316.55 K	0.118
in dimethyl carbonate, 317.45 K	0.121
in dimethyl carbonate, 321.35 K	0.124
in dimethyl carbonate, 327.35 K	0.126
in dimethyl carbonate, 333.45 K	0.129
